US20060270640A1, “Method of preventing, medicating, and/or treating hypocalcemia of domestic mammal” (Mercian Corporation, priority 2004, published 2006)

Assays:
[1] = Intravaginal administration of VitAD3E to cows, biochemical changes in blood (Comparative Example 1); conditions: intravaginal VitA 10,000,000 IU + VitD3 5,000,000 IU + VitE 920 IU in 8 mL with 20% ethanol per cow; two Holstein cows
Method: Vitamin A, vitamin D3, and vitamin E were administered to the vaginal cavities of cows to observe biochemical changes in blood after administration in the same manner as in Example 1 except that test drugs, test contents, and biochemical examination items of blood were as described in the following (1) to (3).
• Vitamin A (VitA; bulk for drug production, liquid); • Vitamin D3 (VitD3; bulk for drug production, liquid); and • Vitamin E (VitE; bulk for drug production, liquid). (2) Test Contents • VitAD3E test: intravaginal administration of VitA (10,000,000 IU)+VitD3 (5,000,000 IU)+VitE (920 IU) brought up to 8 mL per cow with 20% ethanol. (3) Biochemical Examination Items of Blood • Control test: VitA, 25-hydroxyvitamin D3 (25-OHD3), VitE, calcium (Ca), inorganic phosphorus (iP), and magnesium (Mg); and • VitAD3E test: VitA, 25-OHD3, and VitE.
The shifts of VitA, 25-OHD3, and VitE concentrations in blood by the intravaginal administration of VitAD3E were observed by the above-described procedure.

[2] = format: in vivo, cow; conditions: intravaginal 1 μg/kg 1α-VD3; two Holstein cows
Source text: Biochemical changes in blood were observed by administering 1α-hydroxyvitamin D3 to the vaginal cavities of cows.
Test animals used were two Holstein dairy cows (Cow A and Cow B) described below. During a test period, the cows were raised by the free grazing of hay (free water drinking) in a field paddock as well as feeding with 2 kg/day of formula feed (64.1% TDN, 13.6% CP, 0.2% Ca, 0.09% Mg, and 1.39% K in DM).
Cow A: 35months old, female, single birth, ovariectomized, 560 kg
Cow B: 34months old, female, single birth, ovariectomized, 580 kg
The following test drug was used: • 1α-hydroxyvitamin D3 (1α-VD3; manufactured by Nisshin Pharma Co., Ltd., powder).
Test contents and schedules were as follows: • 1. Control test: intravaginal administration of 4 mL of 20% ethanol (for 1 week); and • 2. 1α-VD3 test: intravaginal administration of 1 μg/kg (by body weight) of 1α-VD3 dissolved in 4 mL of 20% ethanol (for 2 weeks).
Intravaginal administration was performed by the following procedure:
The above-described reagent was prepared on ice water and then administered, with a 10-mL plastic syringe, to a deep region in the vagina of the test cows previously allowed to urinate and vulva skin was immediately closed with an instant adhesive.
In each test, blood was collected immediately before administration (0 hour) and at 0.5, 1, 2, 3, 6, 12, 24, 48, and 72 hours (hrs) after administration. […]

| Molecule | intravaginal absorption of the drug [1] | effect on Ca metabolism [2] |
| --- | --- | --- |
| Vitamin E | No evidence that administered drugs were absorbed from the vaginal wall was confirmed |  |
| C=C1CC[C@H](O)C/C1=C/C=C1\CCC[C@]2(C)[C@@H]([C@H](C)CCCC(C)C)CC[C@@H]12 [vitamin D3, Vitamin D3] | No evidence that administered drugs were absorbed from the vaginal wall was confirmed |  |
| C=C1/C(=C\C=C2/CCC[C@]3(C)[C@@H]([C@H](C)CCCC(C)C)CC[C@@H]23)C[C@@H](O)C[C@@H]1O [1α-VD3, 1α-hydroxyvitamin D3] |  | affecting Ca metabolism |
